The test addresses T1, human leukocyte elastase (Homo sapiens, UniProt P08246).
T1 sequence (P08246 30-267): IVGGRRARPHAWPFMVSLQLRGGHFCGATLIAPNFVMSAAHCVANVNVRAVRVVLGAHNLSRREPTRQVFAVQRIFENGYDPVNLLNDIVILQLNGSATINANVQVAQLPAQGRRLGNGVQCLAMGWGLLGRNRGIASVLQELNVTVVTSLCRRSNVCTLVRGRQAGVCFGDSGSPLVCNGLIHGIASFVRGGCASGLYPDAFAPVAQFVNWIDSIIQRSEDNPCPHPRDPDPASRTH
Put plainly: human leukocyte elastase inhibition, progress curves with MeOSuc-Ala-Ala-Pro-Val-pNA. The conditions noted are these: HLE; substrate MeOSuc-Ala-Ala-Pro-Val-pNA; pH 7.8, 25° C.; 410 nM absorbance; read-out: inhibition constant Ki. It counts as biochemical. The protocol:
The test compound (inhibitor) is dissolved in DMSO in a vial to produce an inhibitor stock solution which has a concentration in the range of 200-1000 μM. The inhibitor stock solution is diluted (1:4, 1:16 and 1:64) into assay vials (vials 1, 2 and 3 respectively) containing 2.4 mL of buffer solution (50 mM N-[2-hydroxyethyl]piperazine-N'-[2-ethanesulfonic acid]/NaOH, 500 mM NaCl, pH 7.8 at 25° C.) and DMSO is added so that the total volume in each vial is 3.2 mL. 70 μL, 50 μL, 35 μL and 25 μL of inhibitor from assay vial 1 is placed into the first four wells of a 96-well microtiter plate and each well is made up to 90 μL total volume with the addition of a 25% DMSO/buffer solution. The inhibitor from assay vials 2 and 3 is processed in a similar manner and placed in wells 5-12 respectively to afford a total of 12 different inhibitor concentrations. Four wells (wells 13-16) containing 90 μL of the 25% DMSO/buffer solution but no inhibitor are also run simultaneously with the inhibited wells as a control. 150 μL of substrate solution (prepared by the addition of 500 μL of the human leukocyte elastase (HLE) substrate MeOSuc-Ala-Ala-Pro-Val-pNA (18.7 mM in DMSO) to 19.5 mL of buffer solution) is then added simultaneously into each of the 16 wells and the solution in each well was thoroughly mixed.
The 96-well microtiter plate is placed into a Microplate Reader #89815A spectrophotometer and 110 μL of the enzyme solution (prepared as follows: a mixture of 20 mL of buffer solution and 20 mg of bovine serum albumen is gently vortexed in a scintillation vial and 5 μL HLE stock solution (1 mg/mL dissolved in deionized water) is added) is added simultaneously to each of the 16 wells. Each of the solutions in the wells is thoroughly mixed and then the time-dependent absorbance data is collected at an absorbance of 410 nm until the assay is complete. It should be noted that although this assay method can be done manually, it is preferred to perform the assay robotically using a Hewlett Packard MicroAssay System Robot.
A plot of the absorbance versus time data thus obtained affords progress curves the final slope of which is equal to the final steady-state velocities (VF). Using the program ENZFITTER (Elsevier software), the progress curves for the four control assays ([I]=0) are fit by linear regression to yield the enzyme reaction velocity values in the absences of inhibitor (Vo) which are averaged to produce a single fixed value. The inhibition constant Ki (nM) is then obtained from a plot of [formula] which affords a linear plot wherein: [formula] and [S] is the concentration of the substrate and Km is the Michaelis constant.
Table V summarizes the results obtained from the testing of representative compounds of the invention for human leukocyte elastase inhibitory activity.

As usually defined, the Ki is a dissociation constant, usually derived from enzyme kinetics or from competition with a known ligand.

As to `CC(C)C1NS(=O)(=O)N(CSc2nnnn2-c2ccccc2)C1=O` (racemic) [2 (f), 2-(1-phenyl-1H-tetrazol-5-yl-thiomethyl)-4-isopropyl-1,2,5-thizdizolidin-3-one 1,1-dioxide], the Ki came out at 3 µM.
With `CCCC1NS(=O)(=O)N(CSc2nnnn2-c2ccccc2)C1=O` (centres unmarked) [1 (f), 2-(1-phenyl-1H-tetrazol-5-yl-thiomethyl)-4-propyl-1,2,5-thiadiazolidin-3-one 1,1-dioxide], the Ki amounted to 0.18 µM.
In the case of `CCCC1C(=O)N(CSc2nnnn2-c2ccccc2)S(=O)(=O)N1C` (centres unmarked) [3 (h), 2-(1-phenyl-1H-tetrazol-5-yl-thiomethyl)-4-propyl-5-methyl-1,2,5-thiadiazolidin-3-one 1,1-dioxide] it was 0.0036 µM.
In the case of `CC(C)C1C(=O)N(CSc2nnnn2-c2ccccc2)S(=O)(=O)N1C` (centres unmarked) [4 (f), 2-(1-phenyl-1H-tetrazol-5-yl-thiomethyl)-4-isopropyl-5-methyl-1,2,5-thiadiazolidin-3-one 1,1-dioxide] it was 0.2 µM; in that of `CCCC1C(=O)N(CSc2nnnn2-c2ccccc2)S(=O)(=O)N1CC` (centres unmarked) [5 (i), 2-(1-phenyl-1H-tetrazol-5-yl-thiomethyl)-4-propyl-5-ethyl-1,2,5-thiadiazolidin-3-one 1,1-dioxide], 0.011 µM; in that of `CC(C)CCC1C(=O)N(COc2cc(C(F)(F)F)nn2-c2ccccc2)S(=O)(=O)N1C` (centres unmarked) [6 (j), 2-(1-phenyl-3-trifluoromethyl-pyrazol-5-yloxymethyl)-4-(3-methylbutyl)-5-methyl-1,2,5-thiadiazolidin-3-one 1,1-dioxide], 0.0024 µM.
As for `O=C1C2CCCCN2S(=O)(=O)N1CSc1nnnn1-c1ccccc1` (centres unmarked) [18 (f), 2-(1-phenyl-1H-tetrazol-5-yl-thiomethyl)-1,2,5-thiadiazolo [2,3-a]3,3a,4,5,6,7-hexahydropyridine-3-one 1,1-dioxide], the figure is 0.085 µM; as for `O=C1C2CCCN2S(=O)(=O)N1CSc1nnnn1-c1ccccc1` (centres unmarked) [19 (f), 2-(1-phenyl-1H-tetrazol-5-yl-thiomethyl)tetrahydropyrrolo[1,2-b]-1,2,5-thiadiazol-3 (2H)-one 1,1-dioxide], 0.54 µM.

For the origin of these results see patent US5494925A, “2-heterocyclyloxymethyl and 2-heterocyclylthiomethyl-1,2,5-thiadiazolidin-3-one 1,1-dioxides and compositions and method of use thereof” (Sterling Winthrop Inc., priority 1994, dated 1996).
